Results reported in the NIST ThermoML archive (doi:10.1021/acs.jced.8b00547).

Experiments:
[1] = xn = mol fraction of the nth substance listed; conditions: 101 kPa, Liquid; for speed of sound: Single path-length method; for mass density: Vibrating tube method
[2] = refractive index (Na D-line) (dimensionless); xn = mol fraction of the nth substance listed; conditions: 101 kPa, Liquid, Standard Abbe refractometry

CCCC(C)=O [pentan-2-one] + CC(C)O
Conditions | mass density, [1] [kg/m3] | refractive index, [2] | speed of sound, [1] [m/s]
298.15 K, x1 = 0.0978 | 782.98 | 1.3767 | 1146.5
298.15 K, x1 = 0.2344 | 785.78 | 1.3786 | 1157.5
298.15 K, x1 = 0.3338 | 787.81 | 1.37996 | 1165.5
298.15 K, x1 = 0.4126 | 789.5 | 1.38098 | 1171.7
298.15 K, x1 = 0.4972 | 791.25 | 1.38207 | 1178.4
298.15 K, x1 = 0.6036 | 793.49 | 1.3834 | 1186.6
298.15 K, x1 = 0.7125 | 795.82 | 1.38472 | 1195
298.15 K, x1 = 0.8043 | 797.8 | 1.3858 | 1202
298.15 K, x1 = 0.9009 | 799.87 | 1.3869 | 1209.1
298.15 K, x1 = 1 | 802.09 | 1.38782 | 1216
308.15 K, x1 = 0.0978 | 774.13 | 1.3723 | 1110.6
308.15 K, x1 = 0.2344 | 776.72 | 1.37412 | 1120.8
308.15 K, x1 = 0.3338 | 778.65 | 1.3754 | 1128.1
308.15 K, x1 = 0.4126 | 780.23 | 1.37637 | 1133.8
308.15 K, x1 = 0.4972 | 781.85 | 1.37741 | 1139.9
308.15 K, x1 = 0.6036 | 783.93 | 1.37867 | 1147.5
308.15 K, x1 = 0.7125 | 786.12 | 1.37993 | 1155.2
308.15 K, x1 = 0.8043 | 788.05 | 1.38098 | 1161.6
308.15 K, x1 = 0.9009 | 790.07 | 1.382 | 1168.2
308.15 K, x1 = 1 | 792.32 | 1.38284 | 1174.4
318.15 K, x1 = 0.0978 | 764.87 | 1.3677 | 1074.9
318.15 K, x1 = 0.2344 | 767.32 | 1.36948 | 1084.2
318.15 K, x1 = 0.3338 | 769.16 | 1.37072 | 1090.9
318.15 K, x1 = 0.4126 | 770.69 | 1.37167 | 1096.1
318.15 K, x1 = 0.4972 | 772.19 | 1.37268 | 1101.7
318.15 K, x1 = 0.6036 | 774.18 | 1.3739 | 1108.7
318.15 K, x1 = 0.7125 | 776.29 | 1.37511 | 1115.7
318.15 K, x1 = 0.8043 | 778.16 | 1.3761 | 1121.5
318.15 K, x1 = 0.9009 | 780.17 | 1.37708 | 1127.6
318.15 K, x1 = 1 | 782.44 | 1.37782 | 1133.3
328.15 K, x1 = 0.0978 | 755.34 | 1.36295 | 1039
328.15 K, x1 = 0.2344 | 757.63 | 1.36471 | 1047.7
328.15 K, x1 = 0.3338 | 759.42 | 1.36591 | 1054
328.15 K, x1 = 0.4126 | 760.87 | 1.36686 | 1058.8
328.15 K, x1 = 0.4972 | 762.28 | 1.36785 | 1064.1
328.15 K, x1 = 0.6036 | 764.21 | 1.36905 | 1070.6
328.15 K, x1 = 0.7125 | 766.2 | 1.37023 | 1077.2
328.15 K, x1 = 0.8043 | 768.09 | 1.3712 | 1082.6
328.15 K, x1 = 0.9009 | 770.12 | 1.37215 | 1088.3
328.15 K, x1 = 1 | 772.43 | 1.3728 | 1093.6
338.15 K, x1 = 0.0978 | 744.73 | 1.3579 | 1003.3
338.15 K, x1 = 0.2344 | 746.99 | 1.35966 | 1011.5
338.15 K, x1 = 0.3338 | 748.79 | 1.36085 | 1017.3
338.15 K, x1 = 0.4126 | 750.28 | 1.36181 | 1021.8
338.15 K, x1 = 0.4972 | 751.71 | 1.3628 | 1026.7
338.15 K, x1 = 0.6036 | 753.67 | 1.36398 | 1032.7
338.15 K, x1 = 0.7125 | 755.74 | 1.36515 | 1038.8
338.15 K, x1 = 0.8043 | 757.71 | 1.36612 | 1043.8
338.15 K, x1 = 0.9009 | 759.83 | 1.36705 | 1049
338.15 K, x1 = 1 | 762.27 | 1.36764 | 1053.8

CCCC(C)=O [pentan-2-one] + CCC(C)O
Conditions | mass density, [1] [kg/m3] | refractive index, [2] | speed of sound, [1] [m/s]
298.15 K, x1 = 0.1227 | 801.36 | 1.39423 | 1212.6
298.15 K, x1 = 0.2361 | 800.45 | 1.39353 | 1213.1
298.15 K, x1 = 0.3467 | 800.01 | 1.3928 | 1213.5
298.15 K, x1 = 0.4522 | 799.88 | 1.39205 | 1214
298.15 K, x1 = 0.5521 | 799.79 | 1.39133 | 1214.3
298.15 K, x1 = 0.6518 | 799.88 | 1.39059 | 1214.7
298.15 K, x1 = 0.744 | 800.22 | 1.38988 | 1215.1
298.15 K, x1 = 0.8299 | 800.65 | 1.38922 | 1215.4
298.15 K, x1 = 0.919 | 801.23 | 1.38853 | 1215.7
298.15 K, x1 = 1 | 802.09 | 1.38782 | 1216
308.15 K, x1 = 0.1227 | 792.32 | 1.38958 | 1175.7
308.15 K, x1 = 0.2361 | 791.24 | 1.38887 | 1175.5
308.15 K, x1 = 0.3467 | 790.78 | 1.38809 | 1175.4
308.15 K, x1 = 0.4522 | 790.51 | 1.38731 | 1175.3
308.15 K, x1 = 0.5521 | 790.25 | 1.38655 | 1175.2
308.15 K, x1 = 0.6518 | 790.23 | 1.38577 | 1175
308.15 K, x1 = 0.744 | 790.31 | 1.38503 | 1174.9
308.15 K, x1 = 0.8299 | 790.62 | 1.38434 | 1174.7
308.15 K, x1 = 0.919 | 791.25 | 1.38358 | 1174.6
308.15 K, x1 = 1 | 792.32 | 1.38284 | 1174.4
318.15 K, x1 = 0.1227 | 783.39 | 1.38489 | 1138.5
318.15 K, x1 = 0.2361 | 782.07 | 1.38415 | 1137.9
318.15 K, x1 = 0.3467 | 781.42 | 1.38335 | 1137.2
318.15 K, x1 = 0.4522 | 780.93 | 1.38254 | 1136.6
318.15 K, x1 = 0.5521 | 780.55 | 1.38177 | 1136.1
318.15 K, x1 = 0.6518 | 780.41 | 1.38095 | 1135.5
318.15 K, x1 = 0.744 | 780.42 | 1.38018 | 1134.9
318.15 K, x1 = 0.8299 | 780.73 | 1.37943 | 1134.4
318.15 K, x1 = 0.919 | 781.32 | 1.3786 | 1133.8
318.15 K, x1 = 1 | 782.44 | 1.37782 | 1133.3
328.15 K, x1 = 0.1227 | 773.65 | 1.37968 | 1101
328.15 K, x1 = 0.2361 | 772.15 | 1.37897 | 1100.1
328.15 K, x1 = 0.3467 | 771.4 | 1.37819 | 1099.2
328.15 K, x1 = 0.4522 | 770.91 | 1.3774 | 1098.3
328.15 K, x1 = 0.5521 | 770.35 | 1.37666 | 1097.5
328.15 K, x1 = 0.6518 | 770.02 | 1.37589 | 1096.6
328.15 K, x1 = 0.744 | 770.12 | 1.37513 | 1095.8
328.15 K, x1 = 0.8299 | 770.56 | 1.37437 | 1095.1
328.15 K, x1 = 0.919 | 771.22 | 1.37356 | 1094.3
328.15 K, x1 = 1 | 772.43 | 1.3728 | 1093.6
338.15 K, x1 = 0.1227 | 763.26 | 1.37559 | 1063
338.15 K, x1 = 0.2361 | 761.48 | 1.37472 | 1061.8
338.15 K, x1 = 0.3467 | 760.59 | 1.37383 | 1060.7
338.15 K, x1 = 0.4522 | 760.08 | 1.37293 | 1059.6
338.15 K, x1 = 0.5521 | 759.46 | 1.37206 | 1058.6
338.15 K, x1 = 0.6518 | 759.14 | 1.37116 | 1057.6
338.15 K, x1 = 0.744 | 759.29 | 1.37027 | 1056.6
338.15 K, x1 = 0.8299 | 759.87 | 1.36944 | 1055.7
338.15 K, x1 = 0.919 | 760.73 | 1.36852 | 1054.8
338.15 K, x1 = 1 | 762.27 | 1.36764 | 1053.8
